Data: ChEMBL document CHEMBL1124577, “LH-RH antagonists: design and synthesis of a novel series of peptidomimetics” (J Med Chem, 1989)

How the values were obtained:
[1] = target: T1, Gonadotropin-releasing hormone receptor (Rattus norvegicus, UniProt P30969); experiment: Binding affinity at Leutinizing releasing hormone receptor in rat pituitary using [125I]leuprolide as radioligand
T1 sequence (P30969 whole entry): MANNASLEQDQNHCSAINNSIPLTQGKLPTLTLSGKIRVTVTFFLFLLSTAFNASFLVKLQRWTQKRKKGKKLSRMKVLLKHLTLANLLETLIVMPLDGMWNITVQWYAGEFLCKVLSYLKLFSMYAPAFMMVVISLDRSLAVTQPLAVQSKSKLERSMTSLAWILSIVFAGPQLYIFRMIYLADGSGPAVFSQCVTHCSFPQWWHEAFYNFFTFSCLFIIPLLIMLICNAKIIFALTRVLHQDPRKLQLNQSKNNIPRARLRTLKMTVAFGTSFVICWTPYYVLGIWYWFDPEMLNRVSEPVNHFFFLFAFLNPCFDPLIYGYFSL

Rattus norvegicus = species on record: Rattus norvegicus; experiment: Antagonism of leuprolide-induced release of luteinizing hormone from rat pituitary cell; type: functional; conditions: Pituitary gland cell, read-out: pA2 (converted)
[2] = target: T2, Gonadotropin-releasing hormone receptor (Rattus norvegicus) (UniProt P30969); experiment: Apparent receptor density at 3.16*10e-5 M concentration
T2 sequence (whole entry): T1 sequence (P30969 whole entry)

[3] = target: T1, Gonadotropin-releasing hormone receptor; experiment: Dissociation constant was determined in vitro using rat pituitary membranes, at concentration 1.0*10e-5 M; type: cell membranes
[4] = target: T1, Gonadotropin-releasing hormone receptor; experiment: Dissociation constant was determined in vitro using rat pituitary membranes and [125I]-leuprolide as radioligand, at concentration 3.16*10e-6 M; type: cell membranes
[5] = target: T1, Gonadotropin-releasing hormone receptor; experiment: Dissociation constant was determined in vitro using rat pituitary membranes and [125I]leuprolide as radioligand, at concentration 3.16*10e-5 M; type: cell membranes
[6] = target: T2, Gonadotropin-releasing hormone receptor (Rattus norvegicus); experiment: Apparent receptor density at 1.0*10e-5 M concentration
[7] = target: T1, Gonadotropin-releasing hormone receptor; experiment: Binding affinity at LH-RH receptor in rat pituitary using [125I]leuprolide as radioligand
[8] = target: T2, Gonadotropin-releasing hormone receptor (Rattus norvegicus); experiment: Apparent receptor density at 3.16*10e-6 M concentration

## CCC(C)n1ncn(-c2ccc(N3CCN(c4ccc(OC[C@H]5CO[C@](Cn6ccnc6)(c6ccc(Cl)cc6Cl)O5)cc4)CC3)cc2)c1=O (some centres not stated)
[1]
  IC50: > 30 µM

## Clc1ccc([C@@]2(Cn3ccnc3)OC[C@H](CNCc3c[nH]c4ccccc34)O2)c(Cl)c1
[1]
  IC50: > 30 µM

## Clc1ccc([C@@]2(Cn3ccnc3)OC[C@H](COc3ccccc3)O2)c(Cl)c1
[1]
  IC50: > 30 µM

## O=C1c2ccccc2C(=O)N1C[C@H]1CO[C@](Cn2ccnc2)(c2ccc(Cl)cc2Cl)O1
[1]
  IC50: > 30 µM

## CC(C)(C)OC(=O)N[C@@H](Cc1c[nH]c2ccccc12)C(=O)N1CCC[C@H]1C(=O)N[C@@H](CC1=CNCN1)C(=O)NC[C@H]1CO[C@](Cn2ccnc2)(c2ccc(Cl)cc2Cl)O1
Rattus norvegicus
  Kb: 4.57 µM
[1]
  IC50: 0.5 µM

## O=C(NC[C@H]1CO[C@](Cn2ccnc2)(c2ccc(Cl)cc2Cl)O1)[C@H](Cc1c[nH]cn1)NC(=O)[C@@H]1CCC(=O)N1C(=O)OCc1ccccc1
[1]
  IC50: 2 µM

## CC(=O)N1CCN(c2ccc(OCC3COC(Cn4ccnc4)(c4ccc(Cl)cc4Cl)O3)cc2)CC1 (configuration not stated) [KETOCONAZOLE]
[2]
  Bmax: 1.6 pmol/mg
[3]
  Kd: 0.000375 µM
Rattus norvegicus
  Kb: 64.6 µM
[4]
  Kd: 0.000221 µM
[5]
  Kd: 0.811 µM
[6]
  Bmax: 2.01 pmol/mg
[7]
  IC50: 2 µM
[8]
  Bmax: 1.91 pmol/mg

## O=C(NC[C@H]1CO[C@](Cn2ccnc2)(c2ccc(Cl)cc2Cl)O1)C1CCC(=O)N1C(=O)OCc1ccccc1 (some centres not stated)
[1]
  IC50: > 30 µM

## OC[C@H]1CO[C@](Cn2ccnc2)(c2ccc(Cl)cc2Cl)O1
[1]
  IC50: > 30 µM
